In patent US10232043B2, “Photoactivated molecules for light-induced modulation of the activity of electrically excitable cells and methods of using the same” (UNIVERSITY OF SOUTHERN CALIFORNIA, priority 2015, dated 2019):
“Also recorded” adds a separate entry of the source.

What was measured:
[1] = test system: HEK293T cells; test: Whole cell patch clamp, current-clamp membrane potential under light; type: cell-based, human
Description: Membrane potential was monitored using whole cell patch clamp in current-clamp mode. Cultured cells (INS and HEK293) were plated on a glass-bottomed culture dishes 1-3 days prior to recording. Cells were incubated in standard extracellular solution with or without 10 μM RubpyC17 compound for approximately 1.5-2 minutes, then washed and incubated with standard extracellular solution without additional supplementation, or with 2-5 mM ascorbate, 100 μM sodium ferrocyanide, or 100-200 μM potassium ferricyanide, as indicated. The chamber was transferred to the microscope stage. Extracellular solution consisted of 140 mM NaCl, 2.8 mM KCl, 10 mM HEPES, 1 mM MgCl2, 2 mM CaCl2, 10 mM glucose, pH adjusted to 7.3, and osmolarity adjusted to 300-310. Conventional whole-cell patch clamp recordings were performed with an EPC-9 amplifier and Pulse software (HEKA Electronics). Pipette electrodes of 1.8-3.5 Mohm were fire polished before use. Intracellular solution consisted of: 145 mM KCl, 10 mM NaCl, 1 mM MgCl2, 1 mM EGTA, 2 mM ATP, 0.3 mM GTP and 10 mM HEPES, pH adjusted to 7.3 and osmolarity adjusted to 290-300 mOsm. To monitor changes in membrane voltage/potential, cells were patch clamped in current-clamp mode. Access resistances were in the range of 3-8 Mohm. Using Pulse, membrane potentials were recorded before, during and after illumination by the argon ion laser at 488 nm with an irradiance value of 0.458 mE s^−1 m^−2 or by a xenon lamp source through a 470/40 nm bandpass excitation filter with an irradiance value of 0.480 mE s^−1 m^−2. […]
Initial attempts were tied to INS and HEK cells, both cells that are not excitable under normal conditions (INS cells were maintained in low glucose <3 mM to prevent action potentials). […] To monitor the plasma membrane potential, the cells were patch-clamped in whole-cell configuration in current-clamp mode and membrane voltages were recorded while illuminating the cell at 488 nm (0.46-0.48 mE s^−1 m^−2), though other wavelengths are useful, depending on the embodiment. […]

[2] = test system: HEK293T cells; test: Voltage-clamp membrane current under light; type: cell-based, human; conditions: approximately −80 mV
Description: To examine whether light-activated RubpyC17 can directly interact and open or block endogenous ion channels, HEK293T cells were preincubated with RubpyC17, and patch-clamped in a voltage-clamp configuration. Voltage-clamp configuration allowed the cells to be clamped at a potential where most voltage-gated ion channels are closed (approximately −80 mV). […] The current-voltage relationship (see FIGS. 21C and 21D) as well as the steady-state voltage-dependent activation curves of RubpyC17-treated chromaffin cells in voltage-clamp mode before and during light illumination (see FIG. 21E).

[3] = test system: INS cells; test: Whole cell patch clamp, current-clamp membrane potential under light; type: cell-based, rat; conditions: for light-induced increase of membrane potential: 488 nm
Description: Membrane potential was monitored using whole cell patch clamp in current-clamp mode. Cultured cells (INS and HEK293) were plated on a glass-bottomed culture dishes 1-3 days prior to recording. Cells were incubated in standard extracellular solution with or without 10 μM RubpyC17 compound for approximately 1.5-2 minutes, then washed and incubated with standard extracellular solution without additional supplementation, or with 2-5 mM ascorbate, 100 μM sodium ferrocyanide, or 100-200 μM potassium ferricyanide, as indicated. The chamber was transferred to the microscope stage. Extracellular solution consisted of 140 mM NaCl, 2.8 mM KCl, 10 mM HEPES, 1 mM MgCl2, 2 mM CaCl2, 10 mM glucose, pH adjusted to 7.3, and osmolarity adjusted to 300-310. Conventional whole-cell patch clamp recordings were performed with an EPC-9 amplifier and Pulse software (HEKA Electronics). Pipette electrodes of 1.8-3.5 Mohm were fire polished before use. Intracellular solution consisted of: 145 mM KCl, 10 mM NaCl, 1 mM MgCl2, 1 mM EGTA, 2 mM ATP, 0.3 mM GTP and 10 mM HEPES, pH adjusted to 7.3 and osmolarity adjusted to 290-300 mOsm. To monitor changes in membrane voltage/potential, cells were patch clamped in current-clamp mode. Access resistances were in the range of 3-8 Mohm. Using Pulse, membrane potentials were recorded before, during and after illumination by the argon ion laser at 488 nm with an irradiance value of 0.458 mE s^−1 m^−2 or by a xenon lamp source through a 470/40 nm bandpass excitation filter with an irradiance value of 0.480 mE s^−1 m^−2. The duration of illumination varied and the timing is indicated by bars on the figures.
Initial attempts were tied to INS and HEK cells, both cells that are not excitable under normal conditions (INS cells were maintained in low glucose <3 mM to prevent action potentials). The cells were incubated in 10 μM of RubpyC17 compound for approximately 2 minutes then washed with standard extracellular solution, supplemented with 2 mM ascorbate. It was hypothesized that when RubpyC17 is incorporated into the cell membrane, illumination would induce accumulation of negative charges at the outer face of the cell membrane, due to transfer of an electron from ascorbate to the photoactivated RubpyC17 resulting in membrane depolarization. To monitor the plasma membrane potential, the cells were patch-clamped in whole-cell configuration in current-clamp mode and membrane voltages were recorded while illuminating the cell at 488 nm (0.46-0.48 mE s^−1 m^−2), though other wavelengths are useful, depending on the embodiment.

[4] = test system: RCS rats; test: Histology of the retina after injection; type: in vivo, rat; conditions: 3 days after injection, preliminary
Excerpt: This finding was reproduced in 3 of 3 RCS rats injected with Rubpy-C17, and in 2 of 2 control (sham injection) RCS rats.

[5] = test system: HEK293T cells; test: Effect of PF6:Cl counter ion ratio of Rubpy-C17 on HEK293T cells; type: cell-based
Description: In some embodiments, the 20 mg of Rubpy-C17 is stored in −20° C. with desiccant in the dark. […] 253 μl of DMSO is then added into the original bottle containing Rubpy-C17 to make 100 mM stock solution. In some embodiments, the stock solution is aliquot and stored in −20° C. with desiccant in the dark.
In some examples, on the day before or on, the same day of the experiment, the following 2.5 mM external solution is prepared using the following steps. The external solution is warmed up to 37° C. For […] of the external solution, 0.176 grams of absorbic acid was added. Another 240 μL 5M NaOH was added to adjust the pH to between about 7.2-7.4. The absorbic solution can then be filtered through a 0.2 μm filter. The solution is then stored in the dark in 4° C. In some examples, the solution must be used within one week.
The 100 mM of Rubpy solution is first thawed from −20° C. 100 mM Rubpy is then diluted to 10 mM Rubpy: 2 μL 100 mM Rubpy+18 μL DMSO. In some examples, this is vortexted to mix and then centrifuged down with a small bench-top. The culture, medium is aspirated and the cells are rinsed with external solution several times. The external solution can then be aspirated. In some examples, enough of the external solution is left on the cells to prevent it from drying. 500 μL of external solution with 2.5 mM of ascorbic acid can then be added.
In some examples, 1 μL of 10 mM of Rubpy to […] of external solution with 2.5 mM ascorbic acid and mixed well. This should produce a final concentration of 10 μM of Rubpy with 0.1% DMSO. This mixed solution is then added to the above referenced cells and incubated for 10 minutes.
The solution can then be aspirated from the plate and rinsed with regular external solution several times. 2 mL of external solution is added to 2.5 mM ascorbic acid for recording. For each plate, a baseline control is taken by recording the first cell before performing any light-stimulating protocol. The light-stimulus can include 10-40 s in duration and bandpassed at 455-495 nm (blue light).
As discussed above, the mixture a 10 μM of RubpyC17 solution was placed in 10 HEK293T cells.

With `CCCCCCCCCCCCCCCCCc1ccnc(-c2cc(C)ccn2)c1.F[P-](F)(F)(F)(F)F.F[P-](F)(F)(F)(F)F.[Ru+2].c1ccc(-c2ccccn2)nc1.c1ccc(-c2ccccn2)nc1` [RubpyC17, [Ru(bpy)2(bpy-C17)](PF6)2] the light-induced hyperpolarization ([1]; 100 uM ferricyanide in extracellular solution) was 20.9 ± 4.9 mV, the “light-induced depolarization with ferrocyanide as reductant” value ([1]; HEK293T, 0.1 mM ferrocyanide) was “light-induced depolarization was also observed” and the light-induced depolarization ([1]; HEK293 cells, presence of ascorbate) was 14.6 ± 2.4 mV. For the same molecule, the “light-induced changes in membrane current” value [2] was “did not exhibit light-induced changes in membrane current”, the “continuous illumination required to reach maximum light-triggered depolarization” value ([3]; 0.46-0.48 mE s−1 m2, FIGS. 18B-18F) was about 30 s and the “light-induced increase of membrane potential” value ([3]; INS cells, 10 μM ~2 min, 2 mM ascorbate) was 15.9 ± 4.6 mV. The “light-induced increase of membrane potential” value ([3]; INS cells, absence of ascorbate) was 9.8 ± 4.5 mV, the “light-triggered depolarization with non-permeating ions” value ([3]; INS cells, cesium and NMDG instead of potassium and sodium) was “still persisted” and the “illumination time at which cells undergo membrane potential change” value ([3]; oxidants (ferricyanide) present, FIG. 18A) was at least 10 s. For the same molecule, the “reversibility of light-induced depolarization” value ([3]; presence of reductants) was “appears to be irreversible”, the “illumination time at which cells undergo membrane potential change” value ([3]; reductants (ascorbate) present, INS and HEK293T (FIG. 18A)) was at least 25 s and the “retinal histology / pathology” value [4] was “no evidence of retinal cell death or white blood cell infiltrates; also recorded: absence of obvious signs of deleterious effects”. The fluorescence pattern ([5]; only PF6 counter ions) was “punctuate fluorescence” and the Cell Death ([5]; only counter ion is chloride) was “cell death is observed”.
